{
  "source": "paper PMC12586182",
  "about": "(Frontiers in Oncology, 2025)",
  "key": {"A-427": {"tested_on": "A-427", "assay": "Cell viability assay (ATPlite)", "type": "cell-based", "settings": "Homo sapiens; A-427 cell line, 72 hours incubation", "method_in_brief": "(§1)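 Cells grew 24 h, then received 9-point √10-fold compound series in duplicate (0.4% DMSO final) for 72 h. ATP content was read by ATPlite luminescence and normalized to vehicle controls as % viability. IC50 came from a four-parameter logistic fit; curves with F-value above 1.5 were invalidated, with IC50 then set at the top concentration.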"}, "BxPC-3": {"tested_on": "BxPC-3", "assay": "Cell viability assay (ATPlite)", "type": "cell-based", "settings": "Homo sapiens; BxPC-3 cell line, 72 hours incubation", "method_in_brief": "as §1"}, "DEL": {"tested_on": "DEL", "assay": "Cell viability assay (ATPlite)", "type": "cell-based", "settings": "Homo sapiens; DEL cell line, 72 hours incubation", "method_in_brief": "as §1"}, "FaDu": {"tested_on": "FaDu", "assay": "Cell viability assay (ATPlite)", "type": "cell-based", "settings": "Homo sapiens; FaDu cell line, 72 hours incubation", "method_in_brief": "as §1"}, "HCT 116": {"tested_on": "HCT 116", "assay": "Cell viability assay (ATPlite)", "type": "cell-based", "settings": "Homo sapiens; HCT 116 cell line, 72 hours incubation", "method_in_brief": "as §1"}, "HEC-1-B": {"tested_on": "HEC-1-B", "assay": "Cell viability assay (ATPlite)", "type": "cell-based", "settings": "Homo sapiens; HEC-1-B cell line, 72 hours incubation", "method_in_brief": "as §1"}, "JAR": {"tested_on": "JAR", "assay": "Cell viability assay (ATPlite)", "type": "cell-based", "settings": "Homo sapiens; JAR cell line, 72 hours incubation", "method_in_brief": "as §1"}, "KLE": {"tested_on": "KLE", "assay": "Cell viability assay (ATPlite)", "type": "cell-based", "settings": "Homo sapiens; KLE cell line, 72 hours incubation", "method_in_brief": "as §1"}, "Ku812": {"tested_on": "Ku812", "assay": "Cell viability assay (ATPlite)", "type": "cell-based", "settings": "Homo sapiens; Ku812 cell line, 72 hours incubation", "method_in_brief": "as §1"}, "LoVo": {"tested_on": "LoVo", "assay": "Cell viability assay (ATPlite)", "type": "cell-based", "settings": "Homo sapiens; LoVo cell line, 72 hours incubation", "method_in_brief": "as §1"}, "MCF-7": {"tested_on": "MCF-7", "assay": "Cell viability assay (ATPlite)", "type": "cell-based", "settings": "Homo sapiens, MCF7; MCF-7 cell line, 72 hours incubation", "method_in_brief": "as §1"}, "MDA-MB-468": {"tested_on": "MDA-MB-468", "assay": "Cell viability assay (ATPlite)", "type": "cell-based", "settings": "Homo sapiens; MDA-MB-468 cell line, 72 hours incubation", "method_in_brief": "as §1"}, "NCI-H1975": {"tested_on": "NCI-H1975", "assay": "Cell viability assay (ATPlite)", "type": "cell-based", "settings": "Homo sapiens; NCI-H1975 cell line, 72 hours incubation", "method_in_brief": "as §1"}, "NCI-H2172": {"tested_on": "NCI-H2172", "assay": "Cell viability assay (ATPlite)", "type": "cell-based", "settings": "Homo sapiens; NCI-H2172 cell line, 72 hours incubation", "method_in_brief": "as §1"}, "NCI-H2228": {"tested_on": "NCI-H2228", "assay": "Cell viability assay (ATPlite)", "type": "cell-based", "settings": "Homo sapiens; NCI-H2228 cell line, 72 hours incubation", "method_in_brief": "as §1"}, "NCI-H226": {"tested_on": "NCI-H226", "assay": "Cell viability assay (ATPlite)", "type": "cell-based", "settings": "Homo sapiens; NCI-H226 cell line, 72 hours incubation", "method_in_brief": "as §1"}, "NCI-H82": {"tested_on": "NCI-H82", "assay": "Cell viability assay (ATPlite)", "type": "cell-based", "settings": "Homo sapiens; NCI-H82 cell line, 72 hours incubation", "method_in_brief": "as §1"}, "PA-1": {"tested_on": "PA-1", "assay": "Cell viability assay (ATPlite)", "type": "cell-based", "settings": "Homo sapiens; PA-1 cell line, 72 hours incubation", "method_in_brief": "as §1"}, "PC-3": {"tested_on": "PC-3", "assay": "Cell viability assay (ATPlite)", "type": "cell-based", "settings": "Homo sapiens; PC-3 cell line, 72 hours incubation", "method_in_brief": "as §1"}, "PFSK-1": {"tested_on": "PFSK-1", "assay": "Cell viability assay (ATPlite)", "type": "cell-based", "settings": "Homo sapiens; PFSK-1 cell line, 72 hours incubation", "method_in_brief": "as §1"}, "RD-ES": {"tested_on": "RD-ES", "assay": "Cell viability assay (ATPlite)", "type": "cell-based", "settings": "Homo sapiens; RD-ES cell line, 72 hours incubation", "method_in_brief": "as §1"}, "RL95-2": {"tested_on": "RL95-2", "assay": "Cell viability assay (ATPlite)", "type": "cell-based", "settings": "Homo sapiens; RL95-2 cell line, 72 hours incubation", "method_in_brief": "as §1"}, "SK-N-AS": {"tested_on": "SK-N-AS", "assay": "Cell viability assay (ATPlite)", "type": "cell-based", "settings": "Homo sapiens; SK-N-AS cell line, 72 hours incubation", "method_in_brief": "as §1"}, "SK-N-SH": {"tested_on": "SK-N-SH", "assay": "Cell viability assay (ATPlite)", "type": "cell-based", "settings": "Homo sapiens; SK-N-SH cell line, 72 hours incubation", "method_in_brief": "as §1"}, "SW480": {"tested_on": "SW480", "assay": "Cell viability assay (ATPlite)", "type": "cell-based", "settings": "Homo sapiens; SW480 cell line, 72 hours incubation", "method_in_brief": "as §1"}, "SW626": {"tested_on": "SW626", "assay": "Cell viability assay (ATPlite)", "type": "cell-based", "settings": "Homo sapiens; SW626 cell line, 72 hours incubation", "method_in_brief": "as §1"}, "SW872": {"tested_on": "SW872", "assay": "Cell viability assay (ATPlite)", "type": "cell-based", "settings": "Homo sapiens; SW872 cell line, 72 hours incubation", "method_in_brief": "as §1"}, "TCCSUP": {"tested_on": "TCCSUP", "assay": "Cell viability assay (ATPlite)", "type": "cell-based", "settings": "Homo sapiens, TCC-SUP; TCCSUP cell line, 72 hours incubation", "method_in_brief": "as §1"}, "TOV-21G": {"tested_on": "TOV-21G", "assay": "Cell viability assay (ATPlite)", "type": "cell-based", "settings": "Homo sapiens, TOV21G; TOV-21G cell line, 72 hours incubation", "method_in_brief": "as §1"}, "MEK2": {"target": "T1, MEK2 (Homo sapiens, UniProt P36507)", "T1 construct": "purchased Carna Biosciences, Inc. 07-42", "T1 sequence (P36507 whole entry)": "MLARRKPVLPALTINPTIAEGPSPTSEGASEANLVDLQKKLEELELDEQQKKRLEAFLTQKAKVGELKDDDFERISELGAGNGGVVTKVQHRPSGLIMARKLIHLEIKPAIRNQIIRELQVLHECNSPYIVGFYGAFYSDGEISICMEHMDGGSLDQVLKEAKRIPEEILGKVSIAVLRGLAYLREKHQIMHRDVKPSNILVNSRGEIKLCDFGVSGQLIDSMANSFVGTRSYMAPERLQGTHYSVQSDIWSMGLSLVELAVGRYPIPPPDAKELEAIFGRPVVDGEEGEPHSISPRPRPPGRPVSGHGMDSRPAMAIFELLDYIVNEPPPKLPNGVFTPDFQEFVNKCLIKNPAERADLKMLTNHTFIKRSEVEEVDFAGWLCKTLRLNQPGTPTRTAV", "assay": "Kinase enzyme activity assay (ELISA, in-house)", "type": "biochemical"}},
  "note": "Where two headings read alike, the source gives them in different places.",
  "data": [
    {"compound": "O=C(c1ccc(Oc2ccccc2)cc1Cl)c1c[nH]c2ncnc(N[C@@H]3CC[C@@H](CO)OC3)c12", "note": "[nemtabrutinib]", "values": [
      {"measurement": "IC50", "setting": "A-427", "result": 1.24, "unit": "µM"},
      {"measurement": "IC50", "setting": "BxPC-3", "result": 2.61, "unit": "µM"},
      {"measurement": "IC50", "setting": "DEL", "result": 15.4, "unit": "µM"},
      {"measurement": "IC50", "setting": "FaDu", "result": 1.3, "unit": "µM"},
      {"measurement": "IC50", "setting": "HCT 116", "result": 1.65, "unit": "µM"},
      {"measurement": "IC50", "setting": "HEC-1-B", "result": 0.376, "unit": "µM"},
      {"measurement": "IC50", "setting": "JAR", "result": 18.1, "unit": "µM"},
      {"measurement": "IC50", "setting": "KLE", "result": 2.11, "unit": "µM"},
      {"measurement": "IC50", "setting": "Ku812", "result": 1.43, "unit": "µM"},
      {"measurement": "IC50", "setting": "LoVo", "result": 2.36, "unit": "µM"},
      {"measurement": "IC50", "setting": "MCF-7", "result": 12.1, "unit": "µM"},
      {"measurement": "IC50", "setting": "MDA-MB-468", "result": 6.25, "unit": "µM"},
      {"measurement": "IC50", "setting": "NCI-H1975", "result": 2.31, "unit": "µM"},
      {"measurement": "IC50", "setting": "NCI-H2172", "result": 0.447, "unit": "µM"},
      {"measurement": "IC50", "setting": "NCI-H2228", "result": 7.5, "unit": "µM"},
      {"measurement": "IC50", "setting": "NCI-H226", "result": 4.62, "unit": "µM"},
      {"measurement": "IC50", "setting": "NCI-H82", "result": 12.3, "unit": "µM"},
      {"measurement": "IC50", "setting": "PA-1", "result": 3.03, "unit": "µM"},
      {"measurement": "IC50", "setting": "PC-3", "result": 26.8, "unit": "µM"},
      {"measurement": "IC50", "setting": "PFSK-1", "result": 11.3, "unit": "µM"},
      {"measurement": "IC50", "setting": "RD-ES", "result": 4.17, "unit": "µM"},
      {"measurement": "IC50", "setting": "RL95-2", "result": 1.18, "unit": "µM"},
      {"measurement": "IC50", "setting": "SK-N-AS", "result": 2.81, "unit": "µM"},
      {"measurement": "IC50", "setting": "SK-N-SH", "result": 3.43, "unit": "µM"},
      {"measurement": "IC50", "setting": "SW480", "result": 3.34, "unit": "µM"},
      {"measurement": "IC50", "setting": "SW626", "result": 3.13, "unit": "µM"},
      {"measurement": "IC50", "setting": "SW872", "result": 0.666, "unit": "µM"},
      {"measurement": "IC50", "setting": "TCCSUP", "result": 7.7, "unit": "µM"},
      {"measurement": "IC50", "setting": "TOV-21G", "result": 3.78, "unit": "µM"},
      {"measurement": "IC50", "setting": "MEK2; 1 mmol/L ATP, read-out: IC50, MEK2", "result": 0.494, "unit": "µM"},
      {"measurement": "IC50", "setting": "MEK2; IC50, MEK2", "result": 0.0095, "unit": "µM"}
    ]}
  ]
}
